# Key:
# [1] = test system: AY093595.1 (gene 13, PR protein); experiment: qRT-PCR expression of gene 13 in tomato leaves; assay type: in vivo, Tomato ecotype corbarino; set-up: key: relative expression normalized to a-tubulin housekeeping gene
# Protocol: (§1) Tomato ecotype “corbarino” reported to be susceptible to TSWV infection was used in the experiment. Plants were grown in pots in a climatic chamber with a photoperiod of 16/8 hour at 25° C.
# (§2) The viral strain (TSWV PV PV-0393) was utilized in the experiment. The virus was mechanically inoculated and propagated on tomato “corbarino”. The inoculum was prepared in an ice-cooled mortar grounding 1 gr of infected tomato tissue in 10 ml of Na-phosphate buffer 0.01M. The fresh prepared inoculum was stored in ice before use. Tomato plants at BBCH16 were dusted with Carborundum 600 mesh and selected leaves were rubbed with some droplets of inoculum. After 5 min. plants were sprayed with sterile water to remove the excess of inoculum and preserve the cell turgor.
# (§3) Four treatments were compared: i) Mock inoculated; ii) TSWV; iii) 0.25% Laminarin; iv) 0.25% Laminarin+TSWV. In the last treatment the virus was inoculated 24 hrs after the laminarin application.
# (§4) Total RNA was extracted from systemic infected tomato leaves by using the Quick-RNA Plant Kit (Zymo Research) following the manufacturer instructions. The extractions were carried out using three plants after 12 h, 24 h, 48 h, 72 h, 7 days after inoculation. Leaves were instantly frozen in liquid nitrogen after cutting to avoid any deterioration of the sample as well as any defense reaction. The RNA concentration was quantified by measuring the absorbance at 260 nm using a Nanodrop 2000 (Thermofisher). The purity of all of the RNA samples was assessed at an absorbance ratio of OD260/280 and OD260/230, while its structural integrity was checked by agarose gel electrophoresis. Only high-quality RNA with OD 260/280 and OD 260/230>2 was used for subsequent steps. Single-stranded cDNA was synthesized from 1 μg of total RNA using an iScript™ Select cDNA Synthesis Kit and random hexamers as primers (Bio-Rad, Milan, Italy), according to the manufacturer's instructions. Three biological replicates were created from the 3 leaves collected to test 15 genes. Alpha tubulin was used as reference gene.
# (§5) qPCR reactions were performed with BioRad (Applied Biosystems, Foster City, CA, USA) using SYBR R Green. Each reaction was performed in 20 μl containing 10 μl of 2× Power SYBR Green PCR Master Mix (Life Technologies), 0.2-0.3 μM primers and cDNA samples diluted 1:20. Each qPCR reaction was performed in triplicate. Reactions were run using the cycling parameter described previously (Reid et al., 2006) and the qPCR data were analyzed by the Ct method (Pfaffl, 2001). In order to analyze the qPCR data, a-tubulin gene was used as housekeeping to determine the relative expression level of the other genes analyzed in this work. For the determination of qPCR efficiency of each primer pairs, a standard curve was performed using the following cDNA dilutions: 1:4, 1:16, 1:64; 1:256 and 1:1024. Every measurement was made in triplicate. The corresponding qPCR efficiencies (E) were calculated for every primer pair with the software 7300 System SDS software (Applied Biosystems, Foster City, CA, USA) according to the equation E=(10−1/slope−1)×100 (Rutledge and Stewart, 2008).
# (§6) The significance of the differences between the gene expressions levels were compared by one-way ANOVA (p=0.01) and the means were separated by Tukey post-hoc test using SPSS ver.26 ([…]).
# [2] = test system: Nac transcription factor 29-like (gene 8, Solyc05g007770.2); experiment: qRT-PCR expression of gene 8 in tomato leaves; assay type: in vivo, Tomato ecotype corbarino; set-up: key: relative expression normalized to a-tubulin housekeeping gene
# Protocol: as §1, §2, §3, §4, §5, §6
# [3] = Gene_13, 12 hr, treatment Laminarin
# [4] = Gene_13, 12 hr, treatment Laminarin + virus
# [5] = Gene_13, 24 hr, treatment Laminarin
# [6] = Gene_13, 24 hr, treatment Laminarin + virus
# [7] = Gene_13, 48 hr, treatment Laminarin
# [8] = Gene_13, 48 hr, treatment Laminarin + virus
# [9] = Gene_13, 72 hr, treatment Laminarin
# [10] = Gene_13, 72 hr, treatment Laminarin + virus
substance,measurement,setting,value
laminarin,RQ1,[1]; [3],0.9025
same,RQ2,[1]; [3],11.021
same,RQ3,[1]; [3],12.323
same,RQ mean,[1]; [3],10.790
same,RQ1,[1]; [4],13.339
same,RQ2,[1]; [4],10.934
same,RQ3,[1]; [4],11.013
same,RQ mean,[1]; [4],11.762
same,RQ1,[1]; [5],13.750
same,RQ2,[1]; [5],14.763
same,RQ3,[1]; [5],13.300
same,RQ mean,[1]; [5],13.938
same,RQ1,[1]; [6],13.085
same,RQ2,[1]; [6],11.438
same,RQ3,[1]; [6],12.395
same,RQ mean,[1]; [6],12.306
same,RQ1,[1]; [7],31.999
same,RQ2,[1]; [7],13.498
same,RQ3,[1]; [7],29.839
same,RQ mean,[1]; [7],25.112
same,RQ1,[1]; [8],25.291
same,RQ2,[1]; [8],0.8970
same,RQ3,[1]; [8],28.993
same,RQ mean,[1]; [8],21.085
same,RQ1,[1]; [9],45.838
same,RQ2,[1]; [9],96.757
same,RQ3,[1]; [9],93.370
same,RQ mean,[1]; [9],78.655
same,RQ1,[1]; [10],53.674
same,RQ2,[1]; [10],42.556
same,RQ3,[1]; [10],49.901
same,RQ mean,[1]; [10],48.710
same,RQ1,"[2]; 12 hr, Laminarin + virus",0.9892
same,RQ2,"[2]; 12 hr, Laminarin + virus",10.375
same,RQ3,"[2]; 12 hr, Laminarin + virus",10.132
same,RQ mean,"[2]; 12 hr, Laminarin + virus",10.133
same,RQ1,"[2]; 12 hr, Laminarin alone",0.8695
same,RQ2,"[2]; 12 hr, Laminarin alone",0.9166
same,RQ3,"[2]; 12 hr, Laminarin alone",10.042
same,RQ mean,"[2]; 12 hr, Laminarin alone",0.9301
same,RQ1,"[2]; 24 hr, Laminarin + virus",11.335
same,RQ2,"[2]; 24 hr, Laminarin + virus",11.617
same,RQ3,"[2]; 24 hr, Laminarin + virus",0.9361
same,RQ mean,"[2]; 24 hr, Laminarin + virus",10.771
same,RQ1,"[2]; 24 hr, Laminarin alone",12.571
same,RQ2,"[2]; 24 hr, Laminarin alone",13.299
same,RQ3,"[2]; 24 hr, Laminarin alone",11.584
same,RQ mean,"[2]; 24 hr, Laminarin alone",12.485
same,RQ1,"[2]; 48 hr, Laminarin + virus",13.157
same,RQ2,"[2]; 48 hr, Laminarin + virus",0.7588
same,RQ3,"[2]; 48 hr, Laminarin + virus",11.274
same,RQ mean,"[2]; 48 hr, Laminarin + virus",10.673
same,RQ1,"[2]; 48 hr, Laminarin alone",12.258
same,RQ2,"[2]; 48 hr, Laminarin alone",0.9690
same,RQ3,"[2]; 48 hr, Laminarin alone",15.958
same,RQ mean,"[2]; 48 hr, Laminarin alone",12.635
same,RQ1,"[2]; 72 hr, Laminarin + virus",48.220
same,RQ2,"[2]; 72 hr, Laminarin + virus",49.687
same,RQ3,"[2]; 72 hr, Laminarin + virus",22.018
same,RQ mean,"[2]; 72 hr, Laminarin + virus",39.975
same,RQ1,"[2]; 72 hr, Laminarin alone",24.387
same,RQ2,"[2]; 72 hr, Laminarin alone",43.671
same,RQ3,"[2]; 72 hr, Laminarin alone",32.797
same,RQ mean,"[2]; 72 hr, Laminarin alone",33.618
